In patent publication US5130117A, “Radiohalogenated benzazepine derivatives and method of imaging dopamine receptors therewith” (Trustees of the University of Pennsylvania, priority 1991, dated 1992):
Entries after “also recorded” stand apart in the source; their conditions may differ. Where a name gives a salt, the structure may show the parent alone. Read-outs that look alike come from different tables or passages of the source.

Legend:
D-1 receptors = experiment: Activity of optically resolved isomers of FISCH; details: optical resolution of FISCH isomers
Description: The compounds of this invention can exist as either R- or S- isomers. It is important to note that the aforementioned data were obtained using a racemic mixture of FISCH.

[1] = target: central D-1 dopamine receptors; details: cited from earlier work; for Kd: in vitro binding, rat striatum tissue preparation
D-1 receptor = details: ^11 C label, PET, human brain; cited from earlier work
[2] = target: T1, dopamine D-1 receptor (rat striatal homogenate) (Rattus norvegicus, UniProt P18901); experiment: Saturation binding of radioiodinated ligand to rat striatal homogenate; details: for affinity to rat striatal homogenate / Kd compared with [^125 I]IBZP (R-(+), active form): in words; for Kd compared with [^125 I]IBZP (R-(+), active form): similar conditions; for Kd: specific binding, rat striatal homogenate, racemic mixture
T1 construct: Striatal tissues were excised, pooled and homogenized; from tissue; host or cells: striatum of male Sprague-Dawley rats
Description: (§1) Male Sprague-Dawley rats (200-250g) were decapitated, and the brains were removed and placed in ice. Striatal tissues were excised, pooled and homogenized in 100 volumes(w/v) of ice-cold Tris-HCl buffer (50 mM), pH 7.4. The homogenates were centrifuged at 20,000×g for 20 min. The resultant pellets were rehomogenized in the same buffer and centrifuged again. The final pellets were resuspended in assay buffer containing: 50 mM Tris buffer pH 7.4, 120 mM NaCl, 5 mM KCl, 2mM CaCl2 and 1 mM MgCl2.
(§2) The binding assays were performed by incubating 50 μl of tissue preparations containing 40-60μg of protein with appropriate amounts of [^125 l]FISCH ligand and competitors in a total volume of 0.2 ml of the assay buffer. After an incubation period of 20 min at 37° C. (with stirring), the samples were rapidly filtered in the cell harvester (Brandel M-24R) under vacuum through Whatman GF/B glass fiber filters pretreated with 0.2% protamine sulfate and washed with 3×5ml of cold (4° C.) 50 mM Tris-HCl buffer, pH 7.4. […] The filters were counted in a gamma counter (Beckman 5500) at an efficiency of 70%.
(§3) Both Scatchard and competition experiments were analyzed using the iterative non-linear least squares curve-fitting program LIGAND.

[3] = target: T2, dopamine D-1 receptor (rat striatal membranes) (Rattus norvegicus, UniProt P18901); experiment: Competition: inhibition of [^125 I]TISCH binding to rat striatal membranes; details: for Ki: [^125 I]TISCH, rat striatal membranes, read-out: ki (mean + SEM)
T2 construct: Striatal tissues were excised, pooled and homogenized; from tissue; host or cells: striatum of male Sprague-Dawley rats
Description: as §1, §2, §3

[4] = target: T2, dopamine D-1 receptor (rat striatal membranes); experiment: Competition: inhibition of [^125 I]FISCH binding to rat striatal membranes; details: for Ki: 0.15-0.30 nM [^125 I]FISCH, rat striatal membranes, three to five determinations, read-out: ki (mean + SEM)
Description: indicated compounds in 7-11 concentrations and of membrane preparation
from rat striatum. Each value represenets the mean ± SEM of three to
as §1, §2, §3

[5] = Biodistribution in rats of [^125 I]FISCH after iv injection; type: in vivo, male Sprague Dawley rats; details: rat; for brain uptake: iv
Description: Biodistribution of [^125 l]FISCH was studied in male Sprague Dawley rats (225-300g) which were allowed free access to food and water. While under halothane anesthesia, 0.2 ml of a saline solution containing [^125 l]FISCH was injected directly into the femoral vein, and the rats were sacrificed at various time points post injection by cardiac excision under halothane anesthesia. The organs of interest were removed, weighed and radioactivity was counted using a Beckman gamma automatic counter (Model 4000). The percent dose per organ was calculated by a comparison of the tissue counts to suitably diluted aliquots of the injected material. Total activities of blood and muscle were calculated assuming that they are 7% and 40% of total body weight, respectively.

D-1 dopamine receptors [6] = details: rat, in vivo; for striatum/cerebellum (ST/CB) ratio: iv
Description: Regional brain distribution in rats was obtained after an iv injection of [^125 l]FISCH. By dissecting, weighing and counting samples from different brain regions (cortex, striatum, hippocampus and cerebellum), % dose/gram of samples was calculated by comparing the sample counts with the counts of the diluted initial dose. The uptake ratio of each region was obtained by dividing % dose/gram of each region with that of the cerebellum.

[7] = cited from earlier work
D-1 dopamine receptors [8] = details: cited from earlier work

T2 sequence (P18901 whole entry): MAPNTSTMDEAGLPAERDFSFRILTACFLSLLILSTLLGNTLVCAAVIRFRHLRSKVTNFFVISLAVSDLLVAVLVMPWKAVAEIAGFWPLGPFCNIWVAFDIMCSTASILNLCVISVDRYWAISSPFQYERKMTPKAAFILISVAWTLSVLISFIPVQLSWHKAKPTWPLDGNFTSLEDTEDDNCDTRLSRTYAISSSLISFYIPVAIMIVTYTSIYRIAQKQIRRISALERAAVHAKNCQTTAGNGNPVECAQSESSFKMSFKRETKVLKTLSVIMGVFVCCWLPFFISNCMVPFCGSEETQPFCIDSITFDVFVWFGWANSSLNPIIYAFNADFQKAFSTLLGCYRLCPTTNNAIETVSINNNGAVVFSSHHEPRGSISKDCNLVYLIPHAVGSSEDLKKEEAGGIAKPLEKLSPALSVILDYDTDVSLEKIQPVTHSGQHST
T1 sequence (P18901 whole entry): as above

With `CN1CCc2cc(Cl)c(O)cc2[C@H](c2ccc(I)cc2)C1` [S- isomer] the activity of isomer (D-1 receptors) was “inactive”.

For `CN1CCc2cc(Cl)c(O)cc2[C@@H](c2ccccc2)C1` [SCH-23390, R-(+)-8-chloro-2,3,4,5-tetrahydro-3-methyl5-phenyl-1H-3-benzazepine-7-ol], the Kd [1] is listed as 0.36 nM and the regional brain concentration (D-1 receptor) is listed as “highest concentration in the basal ganglia area”.

For `CN1CCc2cc(Cl)c(O)cc2C(c2cccc(I)c2)C1` (stereo not drawn) [TISCH], the “affinity to rat striatal homogenate” value [2] was “high affinity”, the “Kd compared with [^125 I]IBZP (R-(+), active form)” value [2] was “comparable” and the Kd [2] was 0.35 nM. The Ki [3] was 0.55 ± 0.05 nM and the “selectivity for dopamine D-1 receptor” value ([3]; in words, from Tables 2 and 3) was “high selectivity”.

With `CN1CCc2cc(Cl)c(O)cc2C(c2ccc([125I])cc2)C1` (racemic) [FISCH, (±)-8-chloro-2,3,4,5-tetrahydro-3-methyl-5-(4'-[^125 I]iodophenyl) -1H-3-benzazepine-7-ol] the nonspecific binding ([2]; at Kd, rat striatum, FIG. 2) was “approximately 15%”, the “affinity to rat striatal homogenate” value [2] was “high affinity” and the “Kd compared with [^125 I]IBZP (R-(+), active form)” value [2] was “comparable”. The “selectivity for dopamine D-1 receptor” value ([4]; in words, from Tables 2 and 3) was “high selectivity”, the lung clearance ([5]; fifteen and sixty minutes) was “rapid clearance” and the “brain uptake / blood-brain barrier passage” value ([5]; in words) was “good brain uptake in rats; also recorded: passes through the blood-brain barrier with ease”. For the same molecule, the “in vivo stability (deiodination) compared with [^125 I]IBZP” value ([5]; in words) was “better in vivo stability”, the lung uptake ([5]; initial) was “High initial uptake” and the brain uptake ([5]; one hour after injection) was 0.55 % dose/organ. The brain uptake ([5]; two minutes after injection) was 2.27 % dose/organ, the “brain retention compared with [^125 I]IBZP” value ([5]; one hour post injection) was “much better” and the thyroid uptake ([5]; one hour post injection) was 0.04%. The liver uptake ([5]; throughout the first hour) was “remains high throughout the first hour”, the “ST/CB ratio, change with time” value (D-1 dopamine receptors [6]) was “dramatic increase with time” and the “striatum/cerebellum (ST/CB) ratio” value (D-1 dopamine receptors [6]; 2 min) was 1.24. For the same molecule, the “striatum/cerebellum (ST/CB) ratio” value (D-1 dopamine receptors [6]; 15 min) was 1.80 and the “striatum/cerebellum (ST/CB) ratio” value (D-1 dopamine receptors [6]; 60 min) was 2.47.

For `CN1CCc2cc(I)c(O)cc2[C@@H](c2ccccc2)C1` [IBZP], the Kd [1] is listed as 0.7 nM, the “selectivity/specificity for central D-1 dopamine receptors” value ([1]; in words) is listed as “high specificity for central D-1 dopamine receptors” and the “in vivo and in vitro stability” value ([7]; in words, deiodination) is listed as “poor in vivo and in vitro stability”. The “retention time in the brain” value ([7]; in words) was “short retention time in the brain”, the brain uptake ([7]; rat, iv, 2 minutes post injection) was 2.7 %dose/organ and the brain uptake ([7]; rat, iv, 15 minutes post injection) was 1.2 %dose/organ. The brain uptake ([7]; rat, iv, 30 minutes post injection) was 0.8 %dose/organ, the brain uptake ([7]; rat, iv, 60 minutes (one hour) post injection) was 0.26 %dose/organ and the brain localization ([7]; rat, iv) was “good localization in rat brains”. For the same molecule, the thyroid uptake ([7]; rat, later time points) was “high at later time points”, the thyroid uptake ([7]; rat, one hour post injection) was 0.1% and the “blockade of specific uptake regions by pretreatment with SCH-23390” value (D-1 dopamine receptors [8]; in vivo autoradiography) was “can be blocked by pretreatment with SCH-23390”. The “regional distribution in rat brain (caudate putamen, accumbens nucleus and substantia nigra)” value (D-1 dopamine receptors [8]; in vivo autoradiography) was “high uptake”, the “uptake ratio of striatum/cerebellum” value (D-1 dopamine receptors [8]; rat, thirty seconds after injection) was 1.1 and the “uptake ratio of striatum/cerebellum” value (D-1 dopamine receptors [8]; rat, two hours after injection) was 5.3. The “striatum/cerebellum uptake ratio, change with time” value (D-1 dopamine receptors [8]; rat) was “increased with time”.

With `CN1CCc2cc(Cl)c(O)cc2[C@@H](c2ccc(I)cc2)C1` [R+ isomer] the activity of isomer (D-1 receptors) was “active”.

Molecule `CN1CCc2cc(I)c(O)cc2C(c2ccccc2)C1` (racemic) [(±) IBZP, reference compound] has a Ki [4] of 13.4 ± 0.54 nM.

For `CN1CCc2ccc(O)cc2[C@@H](c2ccccc2)C1` [SKF-83692], the Kd [1] is listed as 197 nM.

Molecule `COc1cccc(OC)c1OCCNCC1COc2ccccc2O1` (stereo not drawn) [WB 4101, 2(2,6-dimethoxyphenoxyethyl)-aminomethyl-1,4-benzodioxane hydrochloride, reference compound] has a Ki [4] of 1270 ± 203 nM.

Molecule `CN1CCc2cc(Cl)c(O)cc2C(c2ccc(I)cc2)C1` (racemic) [FISCH, (±)-8-chloro-2,3,4,5-tetrahydro-3-methyl-5-(4'-[^125 I]iodophenyl) -1H-3-benzazepine-7-ol] has a Kd [2] of 1.43 nM, a Ki [4] of 1.71 ± 0.17 nM and a Ki [3] of 2.07 ± 0.35 nM.
